How the values were obtained:
Format in all cases: biochemical
recombinant Aurora A = molecular target: T1, recombinant Aurora A (Homo sapiens, UniProt O14965); experiment: Aurora A (Aurora 2) inhibition assay, Z'-Lyte kinase assay; details: ATP 10 μM, 1 h; less than or equal to 100 nM
T1 construct: purchased Upstate, Lake Placid, N.Y
T1 sequence (O14965 1-403): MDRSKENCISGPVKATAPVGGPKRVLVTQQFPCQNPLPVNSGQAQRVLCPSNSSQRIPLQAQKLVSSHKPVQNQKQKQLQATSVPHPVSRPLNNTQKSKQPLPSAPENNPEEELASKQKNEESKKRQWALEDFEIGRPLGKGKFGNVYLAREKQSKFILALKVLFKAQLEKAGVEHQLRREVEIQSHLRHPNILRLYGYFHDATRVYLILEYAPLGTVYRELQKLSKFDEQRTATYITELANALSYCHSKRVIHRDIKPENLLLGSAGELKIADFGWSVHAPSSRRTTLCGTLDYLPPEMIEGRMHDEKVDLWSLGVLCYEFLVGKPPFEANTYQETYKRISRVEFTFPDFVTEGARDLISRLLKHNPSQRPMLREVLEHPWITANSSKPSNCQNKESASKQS
Experimental: Compounds were tested for their potency against recombinant Aurora A (Upstate, Lake Placid, N.Y.) using the PanVera Z′-Lyte kinase assay kit-Ser/Thr 1 peptide (Invitrogen, Carlsbad, Calif.). Assays were carried out in kinase assay buffer (50 mM HEPES, pH 7.5, 10 mM MgCl2, 5 mM EGTA, 0.05% Brij-35, 2 mM DTT). Test compounds were initially dissolved in DMSO at 100× the highest tested concentration, then serially diluted to 4× test concentrations in kinase assay buffer. Next, Aurora A (final concentration 200-500 ng/mL), Z′-Lyte Ser/Thr 1 peptide (final concentration 2 μM) and ATP (final concentration 10 μM) were added according to the manufacturer's instructions. Assays were carried out in half-area 96-well white polystyrene assay plates (Corning, Corning, N.Y.) in a final volume of 20 μl. The reaction was allowed to proceed for 1 h at room temperature in the dark, at which point the development reagent and stop reagent were added according to the manufacturer's instructions. Coumarin (Ex. 400 nm, Em. 465 nm) and fluorescein (Ex. 400 nm, Em. 565 nm) fluorescence values were measured on a SpectraFluor Plus plate reader (Tecan, Durham, N.C.). The emission ratio (coumarin/fluorescein) was determined and used to calculate the percent phosphorylation for each well. Wells containing substrate but no kinase and wells containing a phosphopeptide control were used to set 0% and 100% phosphorylation values, respectively. Typically 20-40% of the substrate was phosphorylated in wells without inhibitor. Dose-response curves of relative Aurora A activity vs. inhibitor concentration were plotted with Grafit (Erithacus Software, Horley, Surrey, UK).

[1] = molecular target: T2, N-terminal His-tagged human Src (Homo sapiens, UniProt P12931); experiment: Src kinase inhibition assay (33P-ATP filter assay); details: 40 minutes, room temperature; less than or equal to 100 nM
T2 construct: His (N); purchased Upstate USA Inc, Charlottesville, Va
T2 sequence (P12931 whole entry): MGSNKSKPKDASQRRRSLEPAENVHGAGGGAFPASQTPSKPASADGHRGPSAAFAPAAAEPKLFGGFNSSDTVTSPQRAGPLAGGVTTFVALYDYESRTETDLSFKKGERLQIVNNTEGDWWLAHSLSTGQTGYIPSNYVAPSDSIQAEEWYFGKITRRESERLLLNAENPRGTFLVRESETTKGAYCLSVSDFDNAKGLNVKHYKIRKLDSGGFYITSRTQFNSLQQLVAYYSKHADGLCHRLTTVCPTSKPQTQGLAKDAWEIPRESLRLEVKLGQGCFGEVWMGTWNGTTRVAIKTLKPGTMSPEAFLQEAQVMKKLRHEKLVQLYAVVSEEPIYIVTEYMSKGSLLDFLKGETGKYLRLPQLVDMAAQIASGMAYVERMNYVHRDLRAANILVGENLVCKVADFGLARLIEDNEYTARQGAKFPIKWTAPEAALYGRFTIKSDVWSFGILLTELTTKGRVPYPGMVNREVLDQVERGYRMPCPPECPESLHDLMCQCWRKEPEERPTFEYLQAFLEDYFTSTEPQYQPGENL
Experimental: (§1) Compounds were assayed for Src kinase inhibitory activity using N-terminal His-tagged human Src (Upstate USA Inc, 706 Forest Street, Charlottesville, Va.). Serial dilutions of compound were assayed in a final reaction volume of 25 μL by incubating a solution of the above Src kinase (5-10 mU), 8 mM MOPS (3-(N-morpholino)propanesulfonic acid) pH 7.0, 0.2 mM EDTA (ethylenediamine tetracetic acid), 250 μM amino acid sequence KVEKIGEGTYGVVYK (Upstate USA Inc, 706 Forest Street, Charlottesville, Va.), and 10 mM magnesium acetate and [γ-^33P-ATP] (specific activity of about 500 cpm/pmol, concentration as required). The reaction was initiated by the addition of the magnesium acetate and [γ-^33P-ATP] mixture. After incubation for 40 minutes at room temperature, the reaction was stopped by the addition of 5 μL of a 3% phosphoric acid solution. A 10 μL aliquote of the reaction was then spotted onto a P30 filtermat (PerkinElmer, Wellesley, Mass.) and washed three times for five minutes in 75 mM phosphoric acid and once in methanol prior to drying and scintillation counting. Inhibition of Src activity was determined by comparison to assays that contained no inhibitor.

Aurora B kinase = molecular target: T3, Aurora B kinase (Homo sapiens, UniProt Q96GD4); experiment: Aurora B (Aurora 1) inhibition assay, Z'-Lyte kinase assay; details: ATP 50 μM, 16 h; less than or equal to 100 nM
T3 construct: purchased BPS Biosciences, San Diego, Calif
T3 sequence (Q96GD4 whole entry): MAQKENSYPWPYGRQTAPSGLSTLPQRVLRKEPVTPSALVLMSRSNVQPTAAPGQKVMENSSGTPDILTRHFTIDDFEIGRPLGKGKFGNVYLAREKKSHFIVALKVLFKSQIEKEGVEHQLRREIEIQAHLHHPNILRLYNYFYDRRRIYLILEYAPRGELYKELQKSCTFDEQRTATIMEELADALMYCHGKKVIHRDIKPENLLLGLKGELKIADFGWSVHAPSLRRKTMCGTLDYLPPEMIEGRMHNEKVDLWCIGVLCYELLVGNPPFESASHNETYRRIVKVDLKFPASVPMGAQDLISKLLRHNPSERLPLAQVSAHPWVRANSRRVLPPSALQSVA

[2] = molecular target: T4, N-terminal His6-tagged recombinant human KDR, residues 790-end (Homo sapiens, UniProt P35968); experiment: KDR kinase inhibition assay (33P-ATP filter assay); details: 40 minutes, room temperature; less than or equal to 100 nM
T4 construct: recombinant human KDR, residues 790-end; His6 (N); purchased Upstate USA Inc, Charlottesville, Va
T4 sequence (P35968 790-1356 limits assumed): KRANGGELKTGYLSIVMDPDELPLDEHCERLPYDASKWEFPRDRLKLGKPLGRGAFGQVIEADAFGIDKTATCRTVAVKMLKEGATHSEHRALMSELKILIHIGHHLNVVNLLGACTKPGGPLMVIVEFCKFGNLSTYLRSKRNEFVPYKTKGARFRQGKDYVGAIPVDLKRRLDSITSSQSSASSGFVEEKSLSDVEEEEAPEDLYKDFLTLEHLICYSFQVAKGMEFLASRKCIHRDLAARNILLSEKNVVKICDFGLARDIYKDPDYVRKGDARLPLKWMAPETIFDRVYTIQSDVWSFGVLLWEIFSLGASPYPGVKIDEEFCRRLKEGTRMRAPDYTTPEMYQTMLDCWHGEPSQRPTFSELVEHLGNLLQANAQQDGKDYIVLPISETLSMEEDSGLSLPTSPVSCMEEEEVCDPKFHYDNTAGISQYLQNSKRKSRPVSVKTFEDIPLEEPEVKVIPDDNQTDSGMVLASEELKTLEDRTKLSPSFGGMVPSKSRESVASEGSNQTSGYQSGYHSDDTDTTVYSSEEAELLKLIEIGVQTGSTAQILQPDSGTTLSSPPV
Experimental: as §1, with “for KDR” for “for Src”, “N-terminal His6-tagged recombinant” for “N-terminal His-tagged”, “human KDR, residues 790-end” for “human Src”, “above KDR” for “above Src”, “acid), 0.33 mg/mL myelin basic protein” for “acid), 250 μM amino acid sequence KVEKIGEGTYGVVYK”, “of KDR” for “of Src”

[3] = molecular target: T5, N-terminal GST-tagged recombinant human Flt3, residues 564-end (Homo sapiens, UniProt P36888); experiment: Flt3 kinase inhibition assay (33P-ATP filter assay); details: 40 minutes, room temperature; less than or equal to 100 nM
T5 construct: recombinant human Flt3, residues 564-end; GST (N); purchased Upstate USA Inc, Charlottesville, Va
T5 sequence (P36888 564-993 limits assumed): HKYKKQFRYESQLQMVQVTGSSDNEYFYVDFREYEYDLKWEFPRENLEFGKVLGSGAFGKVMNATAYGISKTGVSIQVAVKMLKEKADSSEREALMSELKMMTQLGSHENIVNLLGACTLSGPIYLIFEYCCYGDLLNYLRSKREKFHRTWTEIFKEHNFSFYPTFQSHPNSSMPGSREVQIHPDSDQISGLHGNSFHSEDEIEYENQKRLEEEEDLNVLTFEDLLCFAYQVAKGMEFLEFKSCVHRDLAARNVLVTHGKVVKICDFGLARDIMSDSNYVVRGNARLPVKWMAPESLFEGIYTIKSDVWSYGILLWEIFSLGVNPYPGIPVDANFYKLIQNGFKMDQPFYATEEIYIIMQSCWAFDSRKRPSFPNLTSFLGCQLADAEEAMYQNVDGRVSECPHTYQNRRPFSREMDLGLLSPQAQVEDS
Experimental: Compounds were assayed for Flt3 kinase inhibitory activity using N-terminal GST-tagged recombinant human Flt3, residues 564-end (Upstate USA Inc, 706 Forest Street, Charlottesville, Va.). Serial dilutions of compound were assayed in a final reaction volume of 25 μL by incubating a solution of the above Flt3 kinase (5-10 mU), 8 mM MOPS (3-(N-morpholino)propanesulfonic acid) pH 7.0, 0.2 mM EDTA (ethylenediamine tetracetic acid), 50 μM amino acid sequence EAIYAAPFAKKK (Upstate USA Inc, 706 Forest Street, Charlottesville, Va.), and 10 mM magnesium acetate and [γ-^33P-ATP] (specific activity of about 500 cpm/pmol, concentration as required). The reaction was initiated by the addition of the magnesium acetate and [γ-^33P-ATP] mixture. After incubation for 40 minutes at room temperature, the reaction was stopped by the addition of 5 μL of a 3% phosphoric acid solution. A 10 μL aliquote of the reaction was then spotted onto a P30 filtermat (PerkinElmer, Wellesley, Mass.) and washed three times for five minutes in 75 mM phosphoric acid and once in methanol prior to drying and scintillation counting. Inhibition of Flt3 activity was determined by comparison to assays that contained no inhibitor.

Measured: IC50

Cc1cc(Nc2cc(N3CCC(N4CCOCC4)CC3)nc(/C=C/c3ccccc3)n2)n[nH]1 [Compound 7, (E)-N-(5-methyl-1H-pyrazol-3-yl)-6-(4-morpholinopiperidin-1-yl)-2-styrylpyrimidin-4-amine]
≤ 0.1 µM: all assays above

Cc1cc(Nc2cc(N3CCC(N4CCCCC4)C3)nc(/C=C/c3ccccc3)n2)n[nH]1 (stereo not shown) [Compound 23, (E)-N-(5-methyl-1H-pyrazol-3-yl)-6-(3-(piperidin-1-yl)pyrrolidin-1-yl)-2-styrylpyrimidin-4-amine]
not listed: Aurora B kinase
≤ 0.1 µM: all other assays above

Cc1cc(Nc2cc(N3CC(N4CCOCC4)C3)nc(/C=C/c3ccccc3)n2)n[nH]1 [Compound 15, (E)-N-(5-methyl-1H-pyrazol-3-yl)-6-(3-morpholinoazetidin-1-yl)-2-styrylpyrimidin-4-amine]
not listed: Aurora B kinase
≤ 0.1 µM: all other assays above

Cc1cc(Nc2cc(N3CC(O)(C4CC4)C3)nc(/C=C/c3ccccc3)n2)n[nH]1 [Compound 3, (E)-3-cyclopropyl-1-(6-(5-methyl-1H-pyrazol-3-ylamino)-2-styrylpyrimidin-4-yl)azetidin-3-ol]
≤ 0.1 µM: all assays above

Cc1cc(Nc2cc(N3CC(N4CCC(O)CC4)C3)nc(/C=C/c3ccccc3)n2)n[nH]1 [Compound 21, (E)-1-(1-(6-(5-methyl-1H-pyrazol-3-ylamino)-2-styrylpyrimidin-4-yl)azetidin-3-yl)piperidin-4-ol]
not listed: Aurora B kinase
≤ 0.1 µM: all other assays above
